Assays:
IL-8 = test: Repression of endogenous IL-8 in A549s; type: cell-based, human; details: A549 cells; compound G at 100 nM, p=0.0076
From the text: The A549 cell line (ECACC:86012804) is derived from the human lung epithelial cells from a carcinoma. This cell line contains functional endogenous GR and is stimulated by Tumour Necrosis Factor (TNF) to produce IL-8.
In this assay TNF was used to stimulate NFkB activity in a cell line that expressed endogenous GR. The ability of NFkB to induce IL-8 gene transcription could then be repressed by GR in a ligand dependent manner and, therefore, used to measure transrepression.
COS7 cells were transfected with 3 μg NRE-Luc per 10 cm tissue culture dish. The cells were plated out in to 24 well plates after transfection and left for 18 hours to recover before the steroids of FIGS. 1 and 2A were added. After incubation for 3 hours with the steroids, TNF was added to the samples and after another 15 hours an IL-8 assay (R&D systems) was performed on the cell supernatants according to the manufacturers instructions. Briefly, triplicates of 100 μl of a 1:2 dilution of cell supernatant and 100 μl of a known dilution series of IL-8 were added to the wells of a microtitre plate coated with a monoclonal IL-8 antibody, the samples were incubated with a polyclonal biotinylated IL-8 antibody for 1 hour at room temperature and washed. Streptavidin horse radish peroxidase solution was then added to all wells and incubated for 30 mins before being washed. Tetramethyl benzidine (TMB; a chromagen) was added to all the wells and incubated in the dark for 10 mins, the reaction was stopped by the addition of H2SO4 and the absorbance of each well was read on a spectrophotometer using 450 nm as the primary wavelength. Regression analysis was performed on the standard data and the unknowns were expressed as pg/ml of IL-8 in comparison to the standards.

[1] = target: T1, progesterone receptor (PRB) (Homo sapiens, UniProt P06401); test: Progestogen activity assay using progesterone receptor transactivation; type: cell-based; details: 100 nM; for PRB reporter gene activation: AH3-luc reporter, COS7
T1 construct: expressed in transfected cells; host or cells: COS 7
T1 sequence (P06401 1-933): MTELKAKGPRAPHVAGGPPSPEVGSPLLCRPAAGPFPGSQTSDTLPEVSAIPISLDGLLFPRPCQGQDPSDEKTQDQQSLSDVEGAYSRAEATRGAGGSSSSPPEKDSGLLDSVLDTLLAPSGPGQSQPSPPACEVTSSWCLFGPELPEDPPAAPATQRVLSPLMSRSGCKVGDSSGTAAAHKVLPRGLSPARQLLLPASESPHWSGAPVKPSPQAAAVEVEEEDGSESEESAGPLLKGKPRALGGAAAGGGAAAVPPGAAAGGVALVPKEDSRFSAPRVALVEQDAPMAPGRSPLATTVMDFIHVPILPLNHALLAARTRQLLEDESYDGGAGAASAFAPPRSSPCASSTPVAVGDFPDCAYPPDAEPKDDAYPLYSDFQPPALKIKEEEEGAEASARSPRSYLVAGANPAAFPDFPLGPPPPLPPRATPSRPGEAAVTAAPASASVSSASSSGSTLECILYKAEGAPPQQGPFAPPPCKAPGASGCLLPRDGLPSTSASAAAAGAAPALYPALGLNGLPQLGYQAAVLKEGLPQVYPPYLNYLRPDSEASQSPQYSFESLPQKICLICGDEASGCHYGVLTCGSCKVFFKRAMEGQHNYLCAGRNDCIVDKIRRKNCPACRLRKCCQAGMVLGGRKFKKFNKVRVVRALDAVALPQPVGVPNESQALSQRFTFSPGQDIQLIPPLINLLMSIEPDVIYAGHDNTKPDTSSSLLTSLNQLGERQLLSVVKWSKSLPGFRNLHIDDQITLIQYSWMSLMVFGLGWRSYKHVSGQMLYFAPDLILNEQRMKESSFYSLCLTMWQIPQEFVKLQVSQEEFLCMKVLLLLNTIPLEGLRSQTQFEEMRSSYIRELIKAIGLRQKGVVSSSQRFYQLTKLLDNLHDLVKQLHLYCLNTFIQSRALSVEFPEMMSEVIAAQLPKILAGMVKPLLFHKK
From the text: As the GR LBD has strong homology with the PR LBD there is a chance that any of the tested steroids of FIGS. 1 and 2A that activate one of these receptors may also activate the other. The presence of illegitimate progestogen activity associated with the steroids of FIGS. 1 and 2A was examined using a transactivation assay with the PR instead of the GR.
The PR was artificially expressed in a cell line lacking endogenous PR and a GRE “driving” a luciferase reporter gene was used to measure ligand dependent activation.
COS7 cells were transfected with 1 μg pSEO-PRB and 3 μg AH3-Luc per 10 cm tissue culture dish. The cells were plated out in to 24 well plates after transfection and the steroids of FIGS. 1 and 2A were added immediately to generate a final concentration of 100 nM. After 18 hour incubation the cells were lysed and a luciferase assay was performed.

CEM-C7A cells = test: Apoptosis assay in CEM-C7A cells (viable cell count, MTS); type: cell-based, human; details: CEM C7A cells, 100 nM, three day incubation
Description: The CEM-C7A cell line is a steroid sensitive clone of the CCRF-CEM cell line (ECACC 85112105). This is a T lymphoblastoid cell line with functional endogenous GR.
Apoptosis (programmed cell death) is mediated by a protein called Bax the transcription of which is primarily controlled by the GR in a ligand dependant manner. To measure the ability of a GR ligand to effect apoptosis a suitable cell line was incubated with ligand and a viable cell count was performed after three days.
CEM-C7A cells were plated out on to a 96well plate at 5×10^5/well. The steroids of FIGS. 1 and 2A were added immediately to generate a final concentration of 100 nM. After a three day incubation the live cell number in each well was assessed using Celltiter 96 Aqueous Non-Radioactive Cell Proliferation Assay (Promega). This assay is a calorimetric method for determining the number of viable cells in proliferation or chemosensitivity assays.
Briefly, the assay is composed of solutions of a novel tetrazolium compound (3-(4,5-dimethylthiazol-2-yl)-5-(3-carboxymethoxyphenyl)-2-(4-sulfophenyl)-2H-tetrazolium, MTS) and an electron coupling reagent (phenazine methosulfate; PMS). MTS is bioreduced by cells into a formazan product that is soluble in tissue culture medium. The absorbance of the formazan at 490 nm can be measured directly from 96 well assay plates without additional processing. The conversion of MTS into aqueous, soluble formazan is accomplished by dehydrogenase enzymes found in metabolically active cells. The quantity of formazan product as measured by the amount of 490 nm absorbance is directly proportional to the number of living cells in culture.

| SMILES | repression of IL-8 production after TNF activation (IL-8) | PRB reporter gene activation [1] | induction of apoptosis (CEM-C7A cells) | PRB activation relative to the activation generated by progesterone [1] |
| --- | --- | --- | --- | --- |
| CC1CC2C3CCC4=CC(=O)C=CC4(C)C3(F)C(O)CC2(C)C1(O)C(=O)COC(=O)c1ccc(F)cc1 (stereo not drawn) [Compound D] | exhibited transrepression | – | – | – |
| CC1CC2C3CCC4=CC(=O)C=CC4(C)C3(F)C(O)CC2(C)C1(O)C(=O)NCCC(=O)O (stereo not drawn) [Q] | – | slightly increased reporter gene activation compared to that of dexamethasone | not | – |
| Cc1ccc(NC(=O)C2(O)C(C)CC3C4CCC5=CC(=O)C=CC5(C)C4(F)C(O)CC32C)cc1 (stereo not drawn) [Compound O] | – | slightly increased reporter gene activation compared to that of dexamethasone | – | – |
| CC1CC2C3CCC4=CC(=O)C=CC4(C)C3(F)C(O)CC2(C)C1(O)C(=O)NCCCO (stereo not drawn) [L] | – | slightly increased reporter gene activation compared to that of dexamethasone | – | ~40% |
| CCCNC(=O)C1(O)C(C)CC2C3CCC4=CC(=O)C=CC4(C)C3(F)C(O)CC21C (stereo not drawn) [Compound G] | repressed IL-8 production better than dexamethasone | – | apoptosis was induced | – |
| CCCCCCNC(=O)OCC(=O)C1(O)C(C)CC2C3CCC4=CC(=O)C=CC4(C)C3(F)C(O)CC21C (stereo not drawn) [Compound T] | – | slightly increased reporter gene activation compared to that of dexamethasone | – | – |
| CC1CC2C3CCC4=CC(=O)C=CC4(C)C3(F)C(O)CC2(C)C12OC(C)(C)OCC2=O (stereo not drawn) [Compound A] | exhibited transrepression | – | most potent inducers of apoptosis | – |
| CCCOC(=O)C1(O)C(C)CC2C3CCC4=CC(=O)C=CC4(C)C3(F)C(O)CC21C (stereo not drawn) [R] | – | slightly increased reporter gene activation compared to that of dexamethasone | – | – |
